In patent US12447153B2, “HER2 mutation inhibitors” (Array BioPharma Inc., priority 2021, dated 2025):

Assays:
EGFR wild type (EGFR WT) = EGFR wild type (EGFR WT) (Homo sapiens (Human), UniProt P00533); experiment: Cellular Phosphorylation Assay, Assay 5 (EGF-stimulated EGFR phosphorylation, NIH 3T3 cells); assay type: cell-based; conditions: EGF-stimulated EGFR WT phosphorylation
ErbB2 WT = ErbB2 WT (Homo sapiens (Human), UniProt P04626); experiment: ErbB Enzyme Assay (HTRF KinEASE-TK), Assay 2; assay type: biochemical; conditions: ErbB2 WT enzyme
BCRP = BCRP MDCKII efflux assay (Assay 7); assay type: in vitro ADME; conditions: dog; efflux ratio Papp(B-A)/Papp(A-B), BCRP MDCKII cells; read-out: Assay 7 Pe Ratio
Experimental: (§1) Assay conditions included with and without the BCRP-specific inhibitor, KO143, at a concentration of 0.3 μM to ascertain the contribution of BCRP to the efflux value of the test compound.
(§2) Final organic concentration in the assay was 1%.

EGFR = EGFR (Homo sapiens (Human), UniProt P00533); experiment: ErbB Enzyme Assay (HTRF KinEASE-TK), Assay 3; assay type: biochemical; conditions: EGFR enzyme
[1] = biological target: ErbB2 with Exon 20 YVMA insertion (HER2-YVMA) (Homo sapiens (Human), UniProt P04626, INS775YVMA); experiment: Cellular Phosphorylation Assay, Assay 4 (constitutive ErbB2 phosphorylation, NIH 3T3 cells); assay type: cell-based; conditions: ErbB2 YVMA phosphorylation
MDR1 (P-gp) = MDR1 (P-gp) (Homo sapiens (Human), UniProt P08183); experiment: in vitro; conditions: pig, LLC-PK1
[2] = biological target: BCRP transfected MDCKII cells (Homo sapiens (Human), UniProt Q9UNQ0); experiment: BCRP MDCKII efflux assay (Assay 7); assay type: in vitro ADME; conditions: efflux ratio Papp(B-A)/Papp(A-B)
Experimental: as §1, §2

[3] = biological target: MDR1 (P-gp) transfected LLC-PK1 cells (Homo sapiens (Human), UniProt P08183)

Chain of EGFR wild type (EGFR WT) (P00533 25-1210): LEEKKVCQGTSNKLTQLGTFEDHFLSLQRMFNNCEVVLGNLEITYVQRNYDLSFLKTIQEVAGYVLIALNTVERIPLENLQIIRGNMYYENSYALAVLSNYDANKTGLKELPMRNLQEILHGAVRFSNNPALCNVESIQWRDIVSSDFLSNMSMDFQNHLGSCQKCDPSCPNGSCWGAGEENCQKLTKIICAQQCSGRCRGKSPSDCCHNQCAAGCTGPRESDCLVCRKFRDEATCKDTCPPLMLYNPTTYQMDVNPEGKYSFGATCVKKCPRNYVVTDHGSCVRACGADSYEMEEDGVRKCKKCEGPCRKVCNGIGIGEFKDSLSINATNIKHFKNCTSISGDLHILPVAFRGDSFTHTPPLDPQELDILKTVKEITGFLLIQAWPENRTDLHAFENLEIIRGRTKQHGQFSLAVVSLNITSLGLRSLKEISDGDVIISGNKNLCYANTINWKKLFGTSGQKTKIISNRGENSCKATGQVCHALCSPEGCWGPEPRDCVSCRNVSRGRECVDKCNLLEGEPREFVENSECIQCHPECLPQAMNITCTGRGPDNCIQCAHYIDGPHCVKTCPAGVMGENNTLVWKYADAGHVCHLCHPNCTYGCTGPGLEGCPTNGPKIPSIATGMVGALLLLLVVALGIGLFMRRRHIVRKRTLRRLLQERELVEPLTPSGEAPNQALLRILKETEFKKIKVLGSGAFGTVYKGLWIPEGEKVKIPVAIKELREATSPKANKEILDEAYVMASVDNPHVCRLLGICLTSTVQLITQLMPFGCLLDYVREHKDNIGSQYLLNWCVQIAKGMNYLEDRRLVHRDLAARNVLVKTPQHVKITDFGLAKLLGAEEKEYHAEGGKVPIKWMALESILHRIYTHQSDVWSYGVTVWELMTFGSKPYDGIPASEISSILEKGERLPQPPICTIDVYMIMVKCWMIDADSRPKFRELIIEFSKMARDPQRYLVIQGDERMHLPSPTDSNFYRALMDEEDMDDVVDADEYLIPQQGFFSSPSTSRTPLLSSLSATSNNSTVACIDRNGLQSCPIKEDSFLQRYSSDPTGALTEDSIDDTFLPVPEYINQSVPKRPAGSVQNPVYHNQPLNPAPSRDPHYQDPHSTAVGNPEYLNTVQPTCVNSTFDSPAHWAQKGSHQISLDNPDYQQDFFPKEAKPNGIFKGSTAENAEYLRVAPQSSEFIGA
Chain of EGFR (P00533 25-1210): as above
Chain of ErbB2 with Exon 20 YVMA insertion (HER2-YVMA) (P04626 other isoform, or with tags, fused parts or gaps ins YVMA behind 775): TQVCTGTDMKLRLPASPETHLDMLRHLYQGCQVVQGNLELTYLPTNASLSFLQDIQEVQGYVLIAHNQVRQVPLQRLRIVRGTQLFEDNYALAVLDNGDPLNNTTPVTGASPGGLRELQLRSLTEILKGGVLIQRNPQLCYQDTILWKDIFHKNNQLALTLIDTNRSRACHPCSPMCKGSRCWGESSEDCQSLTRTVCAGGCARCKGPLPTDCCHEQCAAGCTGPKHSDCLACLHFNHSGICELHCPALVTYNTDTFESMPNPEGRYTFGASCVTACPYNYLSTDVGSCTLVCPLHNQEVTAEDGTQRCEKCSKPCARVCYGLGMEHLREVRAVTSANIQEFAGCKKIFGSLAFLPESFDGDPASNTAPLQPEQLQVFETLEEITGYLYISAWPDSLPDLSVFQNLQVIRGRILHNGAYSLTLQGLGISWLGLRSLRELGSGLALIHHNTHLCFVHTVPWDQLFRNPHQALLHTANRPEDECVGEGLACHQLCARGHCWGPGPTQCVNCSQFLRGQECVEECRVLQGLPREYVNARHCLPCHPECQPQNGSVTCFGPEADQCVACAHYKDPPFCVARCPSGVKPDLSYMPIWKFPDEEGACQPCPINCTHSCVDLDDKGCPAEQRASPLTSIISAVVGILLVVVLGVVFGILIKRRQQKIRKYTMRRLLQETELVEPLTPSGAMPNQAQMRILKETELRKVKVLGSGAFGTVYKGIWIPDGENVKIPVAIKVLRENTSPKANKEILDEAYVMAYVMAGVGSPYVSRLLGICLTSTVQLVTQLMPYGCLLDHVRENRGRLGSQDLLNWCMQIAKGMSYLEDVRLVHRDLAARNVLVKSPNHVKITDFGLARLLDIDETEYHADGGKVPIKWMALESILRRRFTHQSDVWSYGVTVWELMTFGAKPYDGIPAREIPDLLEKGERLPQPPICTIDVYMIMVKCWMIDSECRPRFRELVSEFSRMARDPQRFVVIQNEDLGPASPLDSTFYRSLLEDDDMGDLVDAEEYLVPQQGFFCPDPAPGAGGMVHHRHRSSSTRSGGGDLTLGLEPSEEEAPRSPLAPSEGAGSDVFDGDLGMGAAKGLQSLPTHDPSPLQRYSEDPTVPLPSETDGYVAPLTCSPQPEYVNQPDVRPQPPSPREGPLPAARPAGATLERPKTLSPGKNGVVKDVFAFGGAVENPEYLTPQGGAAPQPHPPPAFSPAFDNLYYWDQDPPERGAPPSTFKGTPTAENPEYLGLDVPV
Chain of ErbB2 WT (P04626 23-1255): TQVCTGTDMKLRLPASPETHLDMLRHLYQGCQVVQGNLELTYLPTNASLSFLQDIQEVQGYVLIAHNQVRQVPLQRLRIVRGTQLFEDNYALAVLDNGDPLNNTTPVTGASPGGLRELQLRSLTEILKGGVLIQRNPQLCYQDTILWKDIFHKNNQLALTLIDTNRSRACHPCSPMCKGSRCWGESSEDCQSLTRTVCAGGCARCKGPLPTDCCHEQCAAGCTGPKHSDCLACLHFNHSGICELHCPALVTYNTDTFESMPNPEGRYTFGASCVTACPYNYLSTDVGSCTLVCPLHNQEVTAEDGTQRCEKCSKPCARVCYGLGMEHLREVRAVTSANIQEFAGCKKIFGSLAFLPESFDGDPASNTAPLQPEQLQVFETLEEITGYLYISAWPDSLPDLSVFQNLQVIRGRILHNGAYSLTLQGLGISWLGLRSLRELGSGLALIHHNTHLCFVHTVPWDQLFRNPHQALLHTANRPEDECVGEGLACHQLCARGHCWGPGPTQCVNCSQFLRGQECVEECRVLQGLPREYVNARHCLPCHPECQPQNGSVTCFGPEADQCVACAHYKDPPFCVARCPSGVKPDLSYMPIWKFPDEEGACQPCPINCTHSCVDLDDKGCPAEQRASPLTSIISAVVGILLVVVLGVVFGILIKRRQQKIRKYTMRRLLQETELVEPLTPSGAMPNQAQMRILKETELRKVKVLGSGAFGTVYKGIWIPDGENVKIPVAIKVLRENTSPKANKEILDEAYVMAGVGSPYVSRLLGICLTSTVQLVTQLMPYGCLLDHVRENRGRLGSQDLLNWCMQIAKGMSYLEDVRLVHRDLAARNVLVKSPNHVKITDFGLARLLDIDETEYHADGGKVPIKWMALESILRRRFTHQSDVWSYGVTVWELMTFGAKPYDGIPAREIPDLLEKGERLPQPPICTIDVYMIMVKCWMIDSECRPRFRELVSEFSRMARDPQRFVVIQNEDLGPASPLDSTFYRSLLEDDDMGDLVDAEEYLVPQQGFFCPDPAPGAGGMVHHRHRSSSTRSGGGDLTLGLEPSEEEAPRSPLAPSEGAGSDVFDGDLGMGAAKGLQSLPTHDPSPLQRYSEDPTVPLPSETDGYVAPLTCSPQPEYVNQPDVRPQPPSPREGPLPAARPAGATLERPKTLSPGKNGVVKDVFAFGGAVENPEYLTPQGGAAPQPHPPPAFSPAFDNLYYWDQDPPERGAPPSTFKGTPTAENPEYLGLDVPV

efflux ratio at 2 h, 1 µM (BCRP) | efflux ratio at 2 h, 1 µM (MDR1 (P-gp)) | Compound | IC50 (EGFR wild type (EGFR WT)) | IC50 (ErbB2 WT) | IC50 (EGFR) | IC50 [1] | Assay 7 Pe Ratio [2] | efflux ratio [3]
0.6 | 1.2 | C=CC(=O)N1CCC[C@@H](c2ccc3ncnc(Nc4ccc(Oc5ccc6c(c5)ncn6C)c(C)c4F)c3n2)C1 (racemic) [Example 144, rac-(R)-1-(3-(4-((2-fluoro-3-methyl-4-((1-methyl-1H-benzo[d]imidazol-5-yl)oxy)phenyl)amino)pyrido[3,2-d]pyrimidin-6-yl)piperidin-1-yl)prop-2-en-1-one] | 1070 nM | 25 nM | 650 nM | 11.7 nM |  | 
 |  | C=CC(=O)N1[C@@H]2CC[C@H]1C[C@@H](c1ccc3ncnc(Nc4ccc(Oc5cnc6c(c5)ncn6C)c(C)c4F)c3n1)C2 [Example 227, 1-((1R,3r,5S)-3-(4-((2-fluoro-3-methyl-4-((3-methyl-3H-imidazo[4,5-b]pyridin-6-yl)oxy)phenyl)amino)pyrido[3,2-d]pyrimidin-6-yl)-8-azabicyclo[3.2.1]octan-8-yl)prop-2-en-1-one] | 5000 nM | 138 nM | 3790 nM | 26.8 nM | 5.5 | 1.2
